Assays:
panelists [1] = assay: Sweetness rating against sucrose SEV reference solutions; format: in vivo, human; conditions: for sweetness equivalence, as % solution of sucrose: 10% solution of the saccharide
Protocol: (§1) Additional sensory testing was carried out in accordance with the following procedure. The general framework for the sensory testing was to compare various concentrations of steviol glycoside (rebaudioside A) ranging from 100 ppm to as high as 2000 ppm at intervals spaced to characterize an adequate dose response. Due to known carryover effects, products were served as no more than two products per day, generally served as one of the following pairs: 100 ppm/250 ppm; 500 ppm/1000 ppm; 750 ppm/1500 ppm; 1000 ppm/2000 ppm. The products were not served counterbalanced, but were instead served in ascending concentration to allow for cleaner reads on both data points. The solutions were served in 2 ounce soufflé cups coded with 3-digit codes at room temperature. Store-purchased distilled water and unsalted crackers were available for the panelists to clear their palates before and during testing. Each daily study targeted 30 persons, though at times as fewer panelists were tested due to exclusionary requirements (i.e., those who are lactating, pregnant, on medication, etc., begin the study but then drop out during the study).
The study was designed as a rating study using an anchored scale of references of sucrose solutions in neutral pH water. In this study, panelists received a series of reference samples labeled and identified with their SEV equivalence. The range exceeded the expected sweetness of the test sample and panelists rated the sweetness using a 15-pt maximum that exceeds the expected sweetness of the test sample.
Because one cannot predict the sensitivities of all individuals effectively prior to testing, a broader range of references was used. Specifically, SEV references were as follows (the percentages stated are in weight %):
(§2) Panelists first were asked to familiarize themselves with the intensity of each reference solution and its corresponding SEV. Next, they waited 30 sec and cleansed their palate with water and a cracker. Then panelists were asked to taste the test sample (identified by a random 3-digit code). Then they were instructed to drag a marker on a line scale to match the sweetness of their test samples relative to the references noted above, with the scale ranging from 0 to 15. The value they selected was shown above the line scale so panelists were aware of what values they were indicating. Once this was complete, inquiries related to the liking of the test sample, the similarity of the taste of the test sample to sugar, the intensity of any off flavors, and the identity of any off flavors were asked.

human sense of taste = assay: Taste threshold concentration in aqueous solution; format: in vivo; conditions: neutral aqueous solution containing no other ingredients
From the text: As used herein, the term “taste threshold concentration associated with the tri-/tetra-saccharide(s)” means the minimum concentration at which a person can still taste the tri-/tetra-saccharide(s) by the human sense of taste, in particular in an aqueous solution containing no ingredient other than water and the tri-/tetra-saccharide(s). This taste threshold concentration may vary somewhat from person to person. For example, melezitose has a taste threshold concentration of about 2.5% by weight in a neutral aqueous solution containing no other ingredients.

S. mutans = conditions: recent studies, Food Chemistry 132 (2012) 1951-1958; cited from earlier work
[2] = recent studies, Food Chemistry 132 (2012) 1951-1958; cited from earlier work
[3] = dissolves in 100 g water at 21° C.; cited from earlier work
panelists [4] = assay: Off flavor intensity rating across the rebaudioside A dose response; format: in vivo, human
Protocol: as §1
as §2, with “asked. […]” for “asked.”

panelists [5] = assay: Comparative bitterness of 1000 ppm rebaudioside A 97 solutions, three panelists; format: in vivo, human; conditions: for masking the bitterness of rebaudioside A 97: conclusion from the panel, 10% with 1000 ppm rebaudioside A 97
Protocol: Three aqueous solutions of 1000 ppm rebaudioside A 97 (rebaudioside A having a purity of 97%) were prepared with 10% maltotriose, 2.5% sucrose, or no additional component. The sweetness of a 10% maltotriose solution is approximately equal to a 2.5% sucrose solution. Three panelists were asked to assess the samples for comparative bitterness and were instructed to rinse with water between samples in order to mute any carry-over effects. […] One panelist found the sucrose-containing solution to be the most bitter. […] The panelist that reported the sucrose-containing solution to be less bitter than the maltotriose containing solution, self-identified as an individual not particularly sensitive to the bitterness of rebaudioside A 97. Therefore, the bitterness masking effect of maltotriose may be more plainly observed in those more sensitive to the bitterness of rebaudioside A 97.
Three aqueous solutions of 1000 ppm rebaudioside A 97 were prepared with 10% maltotetraose-enriched syrup (containing 60% maltotetraose on a dry weight basis with other carbohydrates including maltotriose, maltose and glucose), 2.5% sucrose, or no additional component. As a note, the sweetness of a 10% maltotetraose solution is roughly equal to a 2.5% sucrose solution. Three panelists were asked to assess the samples for comparative bitterness and were instructed to rinse with water between samples in order to mute any carry-over effects. […] Therefore, the bitterness masking effect of maltotetraose may be more plainly observed in those sensitive to the bitterness of rebaudioside A 97.

[6] = as compared to sucrose; cited from earlier work
[7] = on a weight basis; cited from earlier work

In the case of `OC[C@H]1O[C@@](CO)(O[C@H]2O[C@H](CO)[C@@H](O)[C@H](O)[C@H]2O)[C@@H](O[C@H]2O[C@H](CO)[C@@H](O)[C@H](O)[C@H]2O)[C@@H]1O` [melezitose, α-D-glucose (1-3)-β-D-fructose (2-1)-α-D-glucose], the “sweetness equivalence, as % solution of sugar (sucrose)” value (panelists [1]; 5% solution of the saccharide) is reported as ~1%, the “sweetness equivalence, as % solution of sucrose” value (panelists [1]) is reported as 2.5% and the taste threshold concentration (human sense of taste) is reported as “about 2.5 % by weight”. For the same molecule, the “utilization by S. mutans in dental caries assay” value (S. mutans) was “not utilized”, the “digestibility by in vitro assay” value [2] was “not to be digestible” and the solubility in water [3] was 26.8 g. The “reduction of off-tastes of Reb A” value (panelists [4]; 5% solution of melezitose (subsweet), FIG. 5) was “clear impact on the reduction of off-tastes” and the “reduction of off-tastes of Reb A” value (panelists [4]; 10% melezitose solution, as sweet as 2.5% sucrose, FIG. 6) was “dramatic”.
With maltotriose the “sweetness equivalence, as % solution of sucrose” value (panelists [1]) was ~2.5%, the “comparative bitterness versus rebaudioside A control” value (panelists [5]; 1000 ppm rebaudioside A 97 in water with 10% test saccharide) was “less bitter than the rebaudioside A control” and the “panelists who found the sample the least bitter of the three samples” value (panelists [5]; 1000 ppm rebaudioside A 97 with 10% test saccharide, versus 2.5% sucrose and no additional component, three panelists) was “Two of the three”. The “panelists who found the sample less bitter than the rebaudioside A control” value (panelists [5]; 1000 ppm rebaudioside A 97 with 10% test saccharide, three panelists) was “All three” and the “masking the bitterness of rebaudioside A 97” value (panelists [5]) was “effective”.
With `OC[C@H]1O[C@@](CO)(O[C@H]2O[C@H](CO)[C@@H](O)[C@H](O)[C@H]2O)[C@@H](O)[C@@H]1O` [sucrose, reference compound] the “increase of sweet taste perception of the Reb A dose response curve” value (panelists [1]; 2.5% solution of sucrose, FIG. 1) was “about 2.5 sweetness units”, the “comparative bitterness versus neat rebaudioside A solution” value (panelists [5]; 1000 ppm rebaudioside A 97 with 2.5% sucrose, two of three panelists (Example 3)) was “equal in bitterness to the neat rebaudioside A solution” and the “reduction of off flavors of Reb A” value (panelists [4]; 2.5% solution of sucrose, FIG. 4) was “reduced somewhat”.
In the case of `OC[C@H]1O[C@H](O[C@H]2[C@H](O)[C@@H](O)[C@@H](O[C@H]3[C@H](O)[C@@H](O)[C@@H](O[C@H]4[C@H](O)[C@@H](O)C(O)O[C@@H]4CO)O[C@@H]3CO)O[C@@H]2CO)[C@H](O)[C@@H](O)[C@@H]1O` (some centres unmarked) [maltotetraose], the “sweetness equivalence, as % solution of sucrose” value (panelists [1]) is reported as ~2.5% and the “masking the bitterness of rebaudioside A 97” value (panelists [5]) is reported as “effective”.
In the case of `OC[C@H]1O[C@H](OC[C@H]2O[C@H](OC[C@H]3O[C@H](O[C@]4(CO)O[C@H](CO)[C@@H](O)[C@@H]4O)[C@H](O)[C@@H](O)[C@@H]3O)[C@H](O)[C@@H](O)[C@H]2O)[C@H](O)[C@@H](O)[C@H]1O` [Stachyose, stachyose], the degree of digestibility [6] is listed as “low” and the “sweetness relative to sucrose” value [7] is listed as “approximately 28%”.

— patent US11700870B2, “Use of tri- and tetra-saccharides as taste modulators” (Tate & Lyle Solutions USA LLC, priority 2016, dated 2023)
